Measurements: US4761414A, “Substituted 1H-pyrimido[1,2-a-]-pyrido[3,4-e]pyrazine 6 oxides” (G. D. Searle & Co., priority 1986, dated 1988)
Values after ≈ are worked out from the molar mass of the structure shown. Read-outs that look alike come from different tables or passages of the source.

Key:
[1] = test system: B. fragilis NCTC 9343; experiment: MIC/MBC against Bacteroides fragilis strain B; format: cell-based; conditions: for MBC: NCTC9343, 99.9% reduction in viable count; for MIC: NCTC9343, 48 h, 48 hours, 37° C., anaerobic
Procedure: (§1) The screening panel utilized in this Example consisted of 5 strains of Bacteroides fragilis. All assays were carried out in 96-well microtitre plates. If an isolate was obtained from either a culture collection or clinical source, the isolate was immediately inoculated into Wilkens-Chalgren broth (Oxoid) and incubated at 37° C. in an anaerobic chamber in an atmosphere of 85% nitrogen, 10% carbon dioxide, and 5% hydrogen for 48 hours. At the end of this time, the viable count was about 10^12 organisms/ml broth. A 1 ml aliquot of each culture was placed in an ampoule and quick frozen in acetone-dry ice mixture and stored in liquid nitrogen. When an inoculum was utilized in an assay, one of the ampoules was thawed and diluted with fresh broth to yield a suspension having a count of 5×10^5 organisms/ml. A 100 μl aliquot of this suspension was inoculated into each well of the microtitre plate. A 2 mg sample of the test compound was dissolved in 0.2 ml of a suitable solvent such as dimethylsulfoxide, polyethylene glycol 200 or methanol. […] After addition of the test solution the final inoculum level was 10^5 cells/ml. The plates were incubated for 48 hours at 37° C. in the anaerobic chamber. The Minimum Inhibitory Concentration (MIC) was read visually. The MIC is defined as the lowest concentration at which there is no detectable growth. The Minimum Bactericidal Concentration (MBC) was determined by taking 50 μl aliquot from each well and placing it in fresh medium. […] The strains of Bacteroides fragilis utilized in the above procedure are identified by letter in accordance with the following legend: |B B. fragilis NCTC 9343

[2] = test system: B. fragilis WS-1; experiment: MIC/MBC against Bacteroides fragilis strain E; format: cell-based; conditions: for MBC: WS1, 99.9% reduction in viable count; for MIC: WS1, 48 h, 48 hours, 37° C., anaerobic
Procedure: as §1, with “|E” for “|B”, “WS-1*” for “NCTC 9343”

[3] = test system: B. fragilis NCTC 9344; experiment: MIC/MBC against Bacteroides fragilis strain C; format: cell-based; conditions: for MBC: NCTC9344, 99.9% reduction in viable count; for MIC: NCTC9344, 48 h, 48 hours, 37° C., anaerobic
Procedure: as §1, with “|C” for “|B”, “9344” for “9343”

[4] = test system: B. fragilis 23745; conditions: Bacteroides fragilis, 23745, in Mus musculus, po, 48 h, log CFU/ml liver homogenate, test compound
[5] = test system: Clostridium perfringens NCTC 523; experiment: microbe, parasite or virus in culture; format: cell-based; conditions: Clostridium perfringens, NCTC523, Clostridium perfringens NCTC 523; procedures of Example 40
[6] = read-out: DOSE GIVING 1 LOG REDUCTION (molar), p.o., after infection and twice daily for 2 days
[7] = read-out: DOSE GIVING 1 LOG REDUCTION, p.o., after infection and twice daily for 2 days

Row | SMILES | MBC [1] [µg/mL] | MIC [1] [µg/mL] | MBC [2] [µg/mL] | MIC [2] [µg/mL] | MBC [3] [µg/mL] | MIC [3] [µg/mL] | ED (1 log reduction) [4, 6] [µmol/kg] | ED (1 log reduction) [4, 7] [mg/kg] | MIC [5] [µg/mL]
1 | Cc1ccc(C2=[N+]([O-])c3cccnc3N3CC(C)(C)CN=C23)cc1 [Example 20, 2,3-Dihydro-2,2-dimethyl-5-(4-methylphenyl)-1H-pyrimido[1,2-a]pyrido[3,2-e]pyrazine 6-oxide] | 6.2 (≈ 19.4 µM) | 6.2 (≈ 19.4 µM) | < 0.8 | 1.5 (≈ 4.68 µM) | 1.5 (≈ 4.68 µM) | 1.5 (≈ 4.68 µM) | 13 | 4.2 | 1.5 (≈ 4.68 µM)
2 | COc1ccc(C2=[N+]([O-])c3cccnc3N3CC(C)(C)CN=C23)cc1OC [Example 22, 2,3-Dihydro-5-(3,4-dimethoxyphenyl)-2,2-dimethyl-1H-pyrimido[1,2-a]pyrido[3,2-e]pyrazine 6-oxide] | < 0.8 | < 0.8 | < 0.8 | < 0.8 | < 0.8 | < 0.8 | 7.3 | 2.7 | < 0.8
3 | CC1(C)CN=C2C(c3ccccc3)=[N+]([O-])c3cccnc3N2C1 [Example 16, 2,3-Dihydro-2,2-dimethyl-5-phenyl-1H-pyrimido[1,2-a]pyrido[3,2-e]pyrazine 6-oxide] | 1.5 (≈ 4.9 µM) | 1.5 (≈ 4.9 µM) | 1.5 (≈ 4.9 µM) | < 0.8 | 1.5 (≈ 4.9 µM) | 1.5 (≈ 4.9 µM) | 2.6 | 0.8 | < 0.8
4 | CCC1(CC)CN=C2C(c3ccccc3)=[N+]([O-])c3cnccc3N2C1 [Example 25, 2,3-Dihydro-2,2-diethyl-5-phenyl-1H-pyrimido[1,2-a]pyrido[3,4-e]pyrazine 6-oxide] | 1.5 (≈ 4.49 µM) | 1.5 (≈ 4.49 µM) | < 0.8 | < 0.8 | 1.5 (≈ 4.49 µM) | 1.5 (≈ 4.49 µM) | 5.75 | 1.9 | 3.1 (≈ 9.27 µM)
5 | [O-][N+]1=C(c2ccccc2)C2=NCC3(CCCCC3)CN2c2ncccc21 [Example 29, Spiro[cyclohexane-1,2'-[2,3]-dihydro-[5]-phenyl-[1H]pyrimido[1,2-a]pyrido[3,2-e]pyrazine [6]-oxide]] | < 0.8 | < 0.8 | < 0.8 | < 0.8 | < 0.8 | < 0.8 | 10.1 | 3.5 | 1.5 (≈ 4.33 µM)
6 | CC1(C)CN=C2C(c3ccc(F)cc3)=[N+]([O-])c3cccnc3N2C1 [Example 31, 2,3-Dihydro-2,2-dimethyl-5-(4-fluorophenyl)-1H-pyrimido[1,2-a]pyrido[3,2-e]pyrazine 6-oxide] | < 0.8 | < 0.8 | < 0.8 | < 0.8 | < 0.8 | < 0.8 | 3 | 1 | 3.1 (≈ 9.56 µM)
7 | CCC1(C)CN=C2C(c3ccccc3)=[N+]([O-])c3cccnc3N2C1 (stereo not drawn) [Example 24, 2,3-Dihydro-2-ethyl-2-methyl-5-phenyl-1H-pyrimido[1,2-a]pyrido[3,2-e]pyrazine 6-oxide] | < 0.8 | < 0.8 | < 0.8 | < 0.8 | < 0.8 | < 0.8 | 6.8 | 2.2 | 1.5 (≈ 4.68 µM)
